In brackets after ≈: the same amount, converted by molar mass.
Test: Solubility of the active agent in water
Format: physicochemical

solubility: ~2.4 µM (≈ 1.51 µg/mL)
Compound: COc1ccc2[nH]cc(CCNC(=O)CC3C(=O)N(CCc4ccc(Cl)cc4Cl)CC(=O)N3CCc3cccs3)c2c1 (stereo not shown) [LPT99, 2-(4-(2,4-Dichlorophenethyl)-3,6-dioxo-1-(2-(thiophen-2-yl)ethyl)piperazin-2-yl)-N-(2-(5-methoxy-1H-indol-3-yl)ethyl)acetamide]

Source: patent US20230081064A1, “FORMULATIONS FOR DELIVERY TO THE EAR” (Spiral Therapeutics Inc., priority 2021, published 2023)
